From patent US9050345B2, “Pyrrolotriazines as potassium ion channel inhibitors” (BRISTOL-MYERS SQUIBB COMPANY, priority 2013, dated 2015)

Target: T1, human KV 1.5 (IKur) (Homo sapiens, UniProt P22460)
T1 construct: expressed in transfected cells
Assay: block of IKur current in patch clamped L-929 cells expressing human Kv1.5
Format: cell-based
Settings: 0.3 μM; patch clamped mammalian L-929 cells stably expressing human Kv1.5

T1 sequence (P22460 whole entry): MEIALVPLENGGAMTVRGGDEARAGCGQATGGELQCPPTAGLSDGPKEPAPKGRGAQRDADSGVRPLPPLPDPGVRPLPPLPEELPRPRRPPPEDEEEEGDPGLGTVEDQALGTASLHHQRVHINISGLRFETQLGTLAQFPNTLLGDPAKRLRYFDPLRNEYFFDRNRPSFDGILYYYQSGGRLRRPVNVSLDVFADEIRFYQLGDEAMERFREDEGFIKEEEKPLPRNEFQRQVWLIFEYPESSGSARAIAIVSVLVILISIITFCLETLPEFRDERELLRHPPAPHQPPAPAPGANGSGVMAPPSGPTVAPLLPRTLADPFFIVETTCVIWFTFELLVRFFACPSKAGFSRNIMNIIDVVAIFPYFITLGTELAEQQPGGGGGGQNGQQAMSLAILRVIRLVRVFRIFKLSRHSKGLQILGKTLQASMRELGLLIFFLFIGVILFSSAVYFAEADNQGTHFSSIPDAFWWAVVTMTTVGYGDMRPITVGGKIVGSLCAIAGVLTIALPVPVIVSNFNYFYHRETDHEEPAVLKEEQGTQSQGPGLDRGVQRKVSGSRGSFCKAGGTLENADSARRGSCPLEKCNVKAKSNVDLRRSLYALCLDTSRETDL

SMILES | KV1_5% Inh L929 @0.3 μM [%]
O=C(NCC(O)CO)c1cncc(-c2nc(NCc3ccccc3)c3c(-c4ccccc4)ccn3n2)c1 (centres unmarked) [Example 97, 5-(4-(benzylamino)-5-phenylpyrrolo [1,2-f][1,2,4]triazin-2-yl)-N-(2,3-dihydroxypropyl) nicotinamide] | 96.86
NS(=O)(=O)c1cncc(-c2nc(NCC3CCCCO3)c3c(-c4ccccc4)ccn3n2)c1 (centres unmarked) [Example 102, 5-(5-phenyl-4-((tetrahydro-2H-pyran-2-yl)methylamino)pyrrolo[1,2-f][1,2,4]triazin-2-yl)pyridine-3-sulfonamide] | 98.89

Same assay, conditions: L929, 0.3 μM; patch clamped mammalian L-929 cells stably expressing human Kv1.5; read-out: KV1_5% Inh L929 @0.3 μM

SMILES | inhibition at 0.3 µM [%]
COc1ncc(-c2nc(NCc3ccccc3)c3c(-c4ccccc4)ccn3n2)cc1S(=O)(=O)NC(C)(C)C [Example 93, 5-(4-(benzylamino)-5-phenylpyrrolo [1,2-f][1,2,4]triazin-2-yl)-N-tert-butyl-2-methoxypyridine-3-sulfonamide] | 41
COc1ncc(-c2nc(NCc3ccccc3)c3c(-c4ccccc4)ccn3n2)cc1S(N)(=O)=O [Example 94, 5-(4-(benzylamino)-5-phenylpyrrolo [1,2-f][1,2,4]triazin-2-yl)-2-methoxypyridine-3-sulfonamide] | 95.8
O=C(NCC(O)CO)c1cncc(-c2nc(NCc3ccccc3)c3c(-c4ccccc4)ccn3n2)c1 (centres unmarked) [Example 96, 5-(4-(benzylamino)-5-phenylpyrrolo [1,2-f][1,2,4]triazin-2-yl)-N-(2,3-dihydroxypropyl) nicotinamide] | 95.7
O=C(O)CCNC(=O)c1cncc(-c2nc(NCc3ccccc3)c3c(-c4ccccc4)ccn3n2)c1 [Example 98, 3-(5-(4-(benzylamino)-5-phenylpyrrolo [1,2-f][1,2,4]triazin-2-yl)nicotinamido) propanoic acid] | 55.3
O=C(O)/C=C/c1cncc(-c2nc(NCc3ccccc3)c3c(-c4ccccc4)ccn3n2)c1 [Example 99, (E)-3-(5-(4-(benzylamino)-5-phenylpyrrolo [1,2-f][1,2,4]triazin-2-yl)pyridin-3-yl)acrylic acid] | 92.2
C1=C(c2nc(NCc3ccccc3)c3c(-c4ccccc4)ccn3n2)CCOC1 [Example 100, N-benzyl-2-(3,6-dihydro-2H-pyran-4-yl)-5-phenylpyrrolo [1,2-f][1,2,4] triazin-4-amine] | 96.9
NS(=O)(=O)c1cncc(-c2nc(NCC3CCCCO3)c3c(-c4ccccc4)ccn3n2)c1 (centres unmarked) [Example 101, 5-(5-phenyl-4-((tetrahydro-2H-pyran-2-yl)methylamino)pyrrolo [1,2-f][1,2,4]triazin-2-yl)pyridine-3-sulfonamide] | 93.6
O=C(c1cncc(-c2nc(NCc3ccccc3)c3c(-c4ccccc4)ccn3n2)c1)N(CCO)CCO [Example 103, 5-(4-(benzylamino)-5-phenylpyrrolo[1,2-f] [1,2,4]triazin-2-yl)-N, N-bis(2-hydroxyethyl) nicotinamide] | 72.2
NS(=O)(=O)c1cncc(-c2nc(NCc3ccccn3)c3c(-c4cccc(F)c4)ccn3n2)c1 [Example 104, 5-(5-(3-fluorophenyl)-4-(pyridin-2-ylmethylamino)pyrrolo[1,2-f][1,2,4]triazin-2-yl)pyridine-3-sulfonamide] | 95.7
COc1ccc(-c2ccn3nc(-c4cncc(S(N)(=O)=O)c4)nc(NCc4ccccn4)c23)cc1 [Example 105, 5-(5-(4-methoxyphenyl)-4-(pyridin-2-ylmethylamino)pyrrolo[1,2-f][1,2,4]triazin-2-yl)pyridine-3-sulfonamide] | 89.3
NS(=O)(=O)c1cncc(-c2nc(NCc3ccccn3)c3c(-c4ccc(N5CCOCC5)cc4)ccn3n2)c1 [Example 106, 5-(5-(4-morpholinophenyl)-4-(pyridin-2-ylmethylamino)pyrrolo[1,2-f][1,2,4]triazin-2-yl)pyridine-3-sulfonamide] | 16
N#Cc1ccc(-c2ccn3nc(-c4cncc(S(N)(=O)=O)c4)nc(NCc4ccccn4)c23)cc1 [Example 107, 5-(5-(-4-cyanophenyl)-4-(pyridin-2-ylmethylamino)pyrrolo[1,2-f][1,2,4]triazin-2-yl)pyridine-3-sulfonamide] | 15.6
NS(=O)(=O)c1cncc(-c2nc(NCc3cccnn3)c3c(-c4ccccc4)ccn3n2)c1 [Example 108, 5-(5-phenyl-4-(pyridazin-3-ylmethylamino)pyrrolo [1,2-f][1,2,4]triazin-2-yl)pyridine-3-sulfonamide] | 72
NC(=O)c1cccc(-c2nc(NCc3ccccn3)c3c(-c4ccccc4)ccn3n2)c1 [Example 109, 3-(5-phenyl-4-(pyridin-2-ylmethylamino)pyrrolo[1,2-f][1,2,4]triazin-2-yl)benzamide] | 98.2
CS(=O)(=O)Nc1cncc(-c2nc(NCc3ccccn3)c3c(-c4ccc(F)cc4)ccn3n2)c1 [Example 110, N-(5-(5-(4-fluorophenyl)-4-(pyridin-2-ylmethylamino)pyrrolo[1,2-f] [1,2,4]triazin-2-yl)pyridin-3-yl) methanesulfonamide] | 81.4
COc1ccc(-c2nc(NCc3ccccn3)c3c(-c4ccccc4)ccn3n2)cn1 [Example 111, 2-(6-methoxypyridin-3-yl)-5-phenyl-N-(pyridin-2-ylmethyl)pyrrolo[1,2-f] [1,2,4]triazin-4-amine] | 97
NC(=O)c1ccc(-c2nc(NCc3ccccn3)c3c(-c4ccccc4)ccn3n2)cc1 [Example 112, 4-(5-phenyl-4-(pyridin-2-ylmethylamino)pyrrolo[1,2-f][1,2,4]triazin-2-yl)benzamide] | 99

SMILES | inhibition at 0.3 µM [%]
CC(=O)Nc1ccc(NC(=O)c2nc(NCc3ccccc3)c3c(-c4ccccc4)ccn3n2)cc1 [Example 113, N-(4-acetamidophenyl)-4-(benzylamino)-5-phenylpyrrolo[1,2-f] [1,2,4] triazine-2-carboxamide] | 88.4
NC(=O)c1ccccc1NC(=O)c1nc(NCc2ccccc2)c2c(-c3ccccc3)ccn2n1 [Example 114, 4-(benzylamino)-N-(2-carbamoylphenyl)-5-phenylpyrrolo [1,2-f][1,2,4] triazine-2-carboxamide] | 35.2
NC(=O)c1ccc(NC(=O)c2nc(NCc3ccccc3)c3c(-c4ccccc4)ccn3n2)cc1 [Example 115, 4-(benzylamino)-N-(4-carbamoylphenyl)-5-phenylpyrrolo [1,2-f][1,2,4] triazine-2-carboxamide] | 90
NS(=O)(=O)c1cccc(NC(=O)c2nc(NCc3ccccc3)c3c(-c4ccccc4)ccn3n2)c1 [Example 116, 4-(benzylamino)-5-phenyl-N-(3-sulfamoylphenyl) pyrrolo[1,2-f][1,2,4] triazine-2-carboxamide] | 89.4
NS(=O)(=O)c1ccc(CCNC(=O)c2nc(NCc3ccccc3)c3c(-c4ccccc4)ccn3n2)cc1 [Example 117, 4-(benzylamino)-5-phenyl-N-(4-sulfamoylphenethyl) pyrrolo[1,2-f][1,2,4] triazine-2-carboxamide] | 86.6
O=C(NC1(CO)CCCC1)c1nc(NCc2ccccc2)c2c(-c3ccccc3)ccn2n1 [Example 118, 4-(benzylamino)-N-(1-(hydroxymethyl)cyclopentyl)-5-phenylpyrrolo [1,2-f][1,2,4] triazine-2-carboxamide] | 45
O=C(NC[C@H](O)c1ccccc1)c1nc(NCc2ccccc2)c2c(-c3ccccc3)ccn2n1 [Example 119, (R)-4-(benzylamino)-N-(2-hydroxy-2-phenylethyl)-5-phenylpyrrolo [1,2-f][1,2,4] triazine-2-carboxamide] | 67.5
O=C(c1nc(NCc2ccccc2)c2c(-c3ccccc3)ccn2n1)N1CCN(c2ccc(O)cc2)CC1 [Example 120, (4-(benzylamino)-5-phenylpyrrolo [1,2-f][1,2,4]triazin-2-yl)(4-(4-hydroxyphenyl)piperazin-1-yl)methanone] | 49
O=C(Nc1ccc(CCO)cc1)c1nc(NCc2ccccc2)c2c(-c3ccccc3)ccn2n1 [Example 122, 4-(benzylamino)-N-(4-(2-hydroxyethyl)phenyl)-5-phenylpyrrolo [1,2-f][1,2,4] triazine-2-carboxamide] | 75.8
O=C(Nc1ccc(-n2cncn2)cc1)c1nc(NCc2ccccc2)c2c(-c3ccccc3)ccn2n1 [Example 123, N-(4-(1H-1,2,4-triazol-1-yl)phenyl)-4-(benzylamino)-5-phenylpyrrolo [1,2-f][1,2,4] triazine-2-carboxamide] | 63.5
O=C(Nc1ccncn1)c1nc(NCc2ccccc2)c2c(-c3ccccc3)ccn2n1 [Example 124, 4-(benzylamino)-5-phenyl-N-(pyrimidin-4-yl)pyrrolo[1,2-f][1,2,4] triazinc-2-carboxamide] | 86.4
COc1ccc(CNC(=O)c2nc(NCc3ccccc3)c3c(-c4ccccc4)ccn3n2)c(OC)c1 [Example 125, 4-(benzylamino)-N-(2,4-dimethoxybenzyl)-5-phenylpyrrolo [1,2-f][1,2,4] triazine-2-carboxamide] | 88.7
c1ccc(-c2ccn3nc(-c4cc[nH]n4)nc(NCc4ccccn4)c23)cc1 [Example 126, 5-pheny 1-2-(1H-pyrazol-3-yl)-N-(pyridin-2-ylmethyl) pyrrolo[1,2-f][1,2,4] triazin-4-amine] | 98.5
NS(=O)(=O)c1cncc(-c2nc(NCc3ccccn3)c3c(-c4ccccc4)ccn3n2)n1 [Example 127, 6-(5-phenyl-4-(pyridin-2-ylmethylamino)pyrrolo[1,2-f][1,2,4]triazin-2-yl)pyrazine-2-sulfonamide] | 99.3
c1ccc(CNc2nc(C3CCOCC3)nn3ccc(-c4ccccc4)c23)cc1 [Example 128, N-benzyl-5-phenyl-2-(tetrahydro-2H-pyran-4-yl)pyrrolo[1,2-f][1,2,4] triazin-4-amine] | 95.4
NS(=O)(=O)c1cncc(-c2nc(NCc3ccccc3)c3c(C4=CCOCC4)ccn3n2)c1 [Example 129, 5-(4-(benzylamino)-5-(3,6-dihydro-2H-pyran-4-yl)pyrrolo[2,1-f][1,2,4]triazin-2-yl)pyridine-3-sulfonamide] | 93.8
